Measurements: patent US4990521A, “4-(aroylamino)piperidine-butanimide derivatives” (Janssen Pharmaceutica, priority 1989, dated 1991)

Experiments:
[1] = Tail Withdrawal Test in Rats (undesired central effects); type: in vivo; conditions: oral, tail in 55° C. water, suppression of withdrawal response exceeding 10 seconds in 50% of animals, fasted male Wistar rats; for ED50: Rattus norvegicus
Protocol: Male Wistar rats were fasted overnight. Each animal was treated orally with a dose level of the compound to be tested. The thus treated rats Were put into individual restraining cages. At various time periods after administration, the lower 5 cm portion of the tail was immersed into a cup filled with water at a constant temperature of 55° C. The typical tail withdrawal response was evaluated during a 10 seconds period after the immersion. ED50 values in mg/kg body weight were determined as that dose of the test compound capable of suppressing in 50% of the tested animals the typical tail withdrawal response during a time period exceeding 10 seconds. Said ED50 values obtained for the compounds of the present invention are gathered in Table 1 column two.

[2] = Ricinus Oil Test in Rats (antidiarrheal activity); type: in vivo; conditions: compound 1 hour before 1 ml ricinus oil orally, no diarrhea in 50% of animals 1 hour after ricinus oil, fasted female Wistar rats; for ED50: Rattus norvegicus, po, 1 h; for Ricinus Oil Test ED50: oral, 60 min
Excerpt: The use of the compounds of formula (I), their N-oxide forms, pharmaceutically acceptable acid-addition salts and stereoisomeric forms thereof in the method of the present invention is based on their useful antidiarrheal activity. This property is clearly evidenced by the experimental data obtained in, for example, the "Ricinus oil Test in Rats". […] By virtue of their useful antidiarrheal activity, it is evident that the compounds of formula (I), their N-oxide forms, pharmaceutically acceptable acid addition salts and stereoisomeric forms can be used in the treatment of diarrhea.
Female Wistar rats were fasted overnight. Each animal was treated orally with a dose level of the compound to be tested. One hour thereafter, the animal received 1 ml of ricinus oil orally. Each animal was kept in an individual cage and 1 hour after the ricinus oil treatment, the presence or absence of diarrhea was noted. The ED50 value was determined as that dose in mg/kg body weight, at which no diarrhea was present in 50% of the tested animals. Said ED50 -values for the compounds of the present invention can be found in the first column of Table 1.

Row | SMILES | ED50 [1] [mg/kg] | ED50 [2] [mg/kg] | Ricinus Oil Test ED50 [2] [mg/kg body weight] | Tail Withdrawal Test ED50 [1] [mg/kg body weight]
1 | CC(CC(C(=O)N(C)C)(c1ccccc1)c1ccccc1)N1CC[C@@H](NC(=O)c2cccc(C(F)(F)F)c2)[C@H](O)C1 (relative stereo) [Compound 1, trans-3-hydroxy-N,N,γ-trimethyl-α,α-diphenyl-4-[[3-(trifluoromethyl)benzoyl]amino]-1-piperidinebutanamide] | > 160 | 0.15 | – | –
2 | CC(CC(C(=O)N(C)C)(c1ccccc1)c1ccccc1)N1CC[C@@H](NC(=O)c2ccc(Cl)c(Cl)c2)[C@H](O)C1 (relative stereo) [Compound 2] | > 160 | 0.63 | – | –
3 | CC(CC(C(=O)N(C)C)(c1ccccc1)c1ccccc1)N1CC[C@@H](NC(=O)c2c(Cl)cccc2Cl)[C@H](O)C1 (relative stereo) [Compound 5] | ≥ 40 | 0.31 | – | –
4 | CC(CC(C(=O)N(C)C)(c1ccccc1)c1ccccc1)N1CC[C@@H](NC(=O)c2cc(Cl)cc(Cl)c2)[C@H](O)C1 (relative stereo) [Compound 7] | > 40 | 0.31 | – | –
5 | CC(CC(C(=O)N(C)C)(c1ccccc1)c1ccccc1)N1CC[C@@H](NC(=O)c2cccc(Cl)c2)[C@H](O)C1 (relative stereo) [Compound 10] | > 40 | 0.04 | – | –
6 | CC(CC(C(=O)N(C)C)(c1ccccc1)c1ccccc1)N1CC[C@@H](NC(=O)c2cccc(Cl)c2[N+](=O)[O-])[C@H](O)C1 (relative stereo) [Compound 17] | > 40 | 0.63 | – | –
7 | CC(CC(C(=O)N(C)C)(c1ccccc1)c1ccccc1)N1CC[C@@H](NC(=O)c2ccc(F)cc2[N+](=O)[O-])[C@H](O)C1 (relative stereo) [Compound 19] | > 40 | 1.25 | – | –
8 | Cc1ccc([N+](=O)[O-])c(C(=O)N[C@@H]2CCN(C(C)CC(C(=O)N(C)C)(c3ccccc3)c3ccccc3)C[C@H]2O)c1 (relative stereo) [Compound 21] | > 40 | ≤ 0.63 | – | –
9 | CC(CC(C(=O)N(C)C)(c1ccccc1)c1ccccc1)N1CC[C@@H](NC(=O)c2ccccc2OCc2ccccc2)[C@H](O)C1 (relative stereo) [Compound 29, trans-3-hydroxy-N,N,γ-trimethyl-α,α-diphenyl-4-[[2-(phenylmethoxy)benzoyl]amino]-1-piperidinebutanamide] | ~40 | ≤ 0.63 | – | –
10 | COc1cc(Cl)ccc1C(=O)N[C@@H]1CCN(C(C)CC(C(=O)N(C)C)(c2ccccc2)c2ccccc2)C[C@H]1O (relative stereo) [Compound 30] | ≥ 40 | 0.63 | – | –
11 | COc1c(Cl)cc(Cl)cc1C(=O)N[C@@H]1CCN(C(C)CC(C(=O)N(C)C)(c2ccccc2)c2ccccc2)C[C@H]1O (relative stereo) [Compound 31] | ~40 | 0.63 | – | –
12 | CCCC(=O)c1ccc(OC)c(C(=O)N[C@@H]2CCN(C(C)CC(C(=O)N(C)C)(c3ccccc3)c3ccccc3)C[C@H]2O)c1 (relative stereo) [Compound 34] | > 40 | < 2.5 | – | –
13 | CC(CC(C(=O)N(C)C)(c1ccccc1)c1ccccc1)N1CC[C@@H](NC(=O)c2cccc([N+](=O)[O-])c2Br)[C@H](O)C1 (relative stereo) [Compound 38] | > 40 | 2.5 | – | –
14 | CC(CC(C(=O)N(C)C)(c1ccccc1)c1ccccc1)N1CC[C@@H](NC(=O)c2cc(Cl)ccc2N)[C@H](O)C1 (relative stereo) [Compound 47, trans-4-[(2-amino-5-chlorobenzoyl)amino]-3-hydroxy-N,N,γ-trimethyl-α,α-diphenyl-1-piperidinebutanamide] | ~40 | 0.08 | – | –
15 | COc1cc(N)c(Cl)cc1C(=O)N[C@@H]1CCN(C(C)CC(C(=O)N(C)C)(c2ccccc2)c2ccccc2)C[C@H]1O (relative stereo) [Compound 50, trans-4-[(4-amino-5-chloro-2-methoxybenzoyl)amino]-3-hydroxy-N,N,γ-trimethyl-α,α-diphenyl-1-piperidinebutanamide] | > 40 | 2.5 | – | –
16 | CO[C@@H]1CN(C(C)CC(C(=O)N(C)C)(c2ccccc2)c2ccccc2)CC[C@H]1NC(=O)c1cccc(C(F)(F)F)c1 (relative stereo) [Compound 52, trans-3-methoxy-N,N,γ-trimethyl-α,α-diphenyl-4-[[3-(trifluoromethyl)benzoyl]amino]-1-piperidinebutanamide] | 40 | 2.5 | – | –
17 | COc1cc(N)c(Cl)cc1C(=O)N[C@@H]1CCN(C(C)CC(C(=O)N(C)C)(c2ccccc2)c2ccccc2)C[C@H]1OC (relative stereo) [Compound 53, trans-4-[(4-amino-5-chloro-2-methoxybenzoyl)amino]-3-methoxy-N,N,γ-trimethyl-α,α-diphenyl-1-piperidinebutanamide] | ~40 | 2.5 | – | –
18 | COc1cc(NC(C)=O)c(Cl)cc1C(=O)N[C@@H]1CCN(C(C)CC(C(=O)N(C)C)(c2ccccc2)c2ccccc2)C[C@H]1O (relative stereo) [Compound 64, trans-4-[[4-(acetylamino)-5-chloro-2-methoxybenzoyl]amino]-3-hydroxy-N,N,γ-trimethyl-α,α-diphenyl-1-piperidinebutanamide] | > 40 | 2.5 | – | –
19 | CC(CC(C(=O)N(C)C)(c1ccccc1)c1ccccc1)N1CC[C@@H](NC(=O)c2ccc(F)cc2N)[C@H](O)C1.O (relative stereo) [Compound 67, trans-4-[(2-amino-4-fluorobenzoyl)amino]-3-hydroxy-N,N,γ-trimethyl-α,α-diphenyl-1piperidinebutanamide monohydrate] | > 40 | < 0.04 | – | –
20 | CC(CC(C(=O)N(C)C)(c1ccccc1)c1ccccc1)N1CC[C@@H](NC(=O)c2cccc(N)c2O)[C@H](O)C1 (relative stereo) [Compound 68, trans-4-[(3-amino-2-hydroxybenzoyl)amino]-3-hydroxy-N,N,γ-trimethyI-α,α-diphenyl-1-piperidinebutanamide] | > 40 | 0.63 | – | –
21 | CC(CC(C(=O)N(C)C)(c1ccccc1)c1ccccc1)N1CC[C@@H](NC(=O)c2cccc(Cl)c2N)[C@H](O)C1 (relative stereo) [Compound 69, trans-4-[(2-amino-3-chlorobenzoyl)amino]-3-hydroxy-N,N,γ-trimethyl-α,α-diphenyl-1-piperidinebutanamide] | > 40 | < 0.63 | – | –
22 | CC(CC(C(=O)N(C)C)(c1ccccc1)c1ccccc1)N1CC[C@@H](NC(=O)c2ccc(Cl)cc2N)[C@H](O)C1 (relative stereo) [Compound 70, trans-4-[(2-amino-4-chlorobenzoyl)amino]-3-hydroxy-N,N,γ-trimethyl-α,α-diphenyl 1-piperidinebutanamide monohydrate] | > 40 | < 0.63 | – | –
23 | COc1cc(N)ccc1C(=O)N[C@@H]1CCN(C(C)CC(C(=O)N(C)C)(c2ccccc2)c2ccccc2)C[C@H]1O (relative stereo) [Compound 75, trans-4[(4-amino-2-methoxybenzoyl)amino]-3-hydroxy-N,N,γ-trimethyl-α,α-diphenyl-1-piperidinebutanamide] | > 40 | 2.5 | – | –
24 | CC(CC(C(=O)N(C)C)(c1ccccc1)c1ccccc1)N1CC[C@@H](NC(=O)c2ccccc2O)[C@H](O)C1 (relative stereo) [Compound 77, trans-3-hydroxy-4-[(2-hydroxybenzoyl)-amino]-N,N,γ-trimethyl-α,α-diphenyl-1-piperidinebutanamide] | ≥ 40 | 0.16 | – | –
25 | CC(CC(C(=O)N(C)C)(c1ccccc1)c1ccccc1)N1CCC(NC(=O)c2cccc(C(F)(F)F)c2)C(O)C1 (single isomer, unassigned; (+)) [Compound 57, (+)-(3B,trans)-3-hydroxy-N,N,γ-trimethyl-α,α-diphenyl-4-[[3-(trifluoromethyl)benzoyl]amino]-1-piperidinebutanamide] | > 160 | – | 0.31 | –
26 | CC(CC(C(=O)N(C)C)(c1ccccc1)c1ccccc1)N1CCC(NC(=O)c2cccc(C(F)(F)F)c2)C(O)C1 (single isomer, unassigned; (-)) [Compound 55, (-)-(3A,trans)-3-hydroxy-N,N,γ-trimethyl-α,α-diphenyl-4-[[3-(trifluoromethyl)benzoyl]amino]-1-piperidinebutanamide] | – | – | 1.0 | > 160
